Test results taken from patent publication US5942489A, “HGH-RH(1-29)NH2 analogues having antagonistic activity” (The Administrators of the Tulane Educational Fund, priority 1996, dated 1999).
“And” between values parts separate entries of the source, which are not always exact repeats. Identical values can stand only once.

How the values were obtained:
[1] = tested on: GH release stimulated by hGH-RH(1-29)NH2; experiment: In vivo inhibition of hGH-RH(1-29)NH2-stimulated serum GH in anesthetized rats; design: species or system Sprague-Dawley rats
Experimental: In Vivo Tests. Adult male Sprague-Dawley rats are anesthetized with pentobarbital (6 mg/100 g b.w., i.p.). Blood samples are taken from the jugular vein 30 min after the injection of pentobarbital. One group of 7 animals receives hGH-RH(1-29)NH2 as control. […] Blood samples are taken from the jugular vein 5 and 15 min after the injection of antagonists. GH levels are measured by RIA. Potencies of the antagonists are calculated by the factorial analysis of Bliss and Marks with 95% confidence limits and are based on the doses of 100 and 400 μg/kg b.w. of the Standard antagonist and 20 and 80 μg/kg b.w. of the antagonists tested. Statistical significance was assessed by Duncan's new multiple range test.

[2] = tested on: SW-1990 human pancreatic cancers; experiment: SW 1990 human pancreatic cancers in nude mice; assay type: in vivo
Experimental: Small piees of an SW-1990 rumor growing in a nude mouse were transplated s.c. into the right flanks of 60 nu/nu male nude mice. Ten days after transplantation, 40 mice with well growing tumors were groupled into 4 groups with equal average tumor volume (16 mm^3) in each group. Treatment started 13 days after transplantation and was continuted for 44 days. The tumors were measured and volume was calculated weekly. Tumor volume changes are shown in Table V. On day 45 of treatment the mice were sacraficed under Metofane anesthesia by exsanguination from abdominal aorta. Blood was collected, tumor and organ weights were determined.

GH release = conditions: cited from earlier work
[3] = 80 μg/kg i.v., 15 min prior to GH-RH(1-29)NH2 3 μg/kg

Compound: CC[C@H](C)[C@H](NC(=O)[C@H](C)NC(=O)[C@H](CC(=O)O)NC(=O)[C@H](C)NC(=O)[C@@H](N)Cc1ccc(O)cc1)C(=O)N[C@@H](Cc1ccccc1)C(=O)N[C@H](C(=O)N[C@@H](CC(N)=O)C(=O)N[C@@H](CO)C(=O)N[C@@H](Cc1ccc(O)cc1)C(=O)N[C@@H](CCCNC(=N)N)C(=O)N[C@@H](CCCCN)C(=O)N[C@H](C(=O)N[C@@H](CC(C)C)C(=O)NCC(=O)N[C@@H](CCC(N)=O)C(=O)N[C@@H](CC(C)C)C(=O)N[C@@H](CO)C(=O)N[C@@H](C)C(=O)N[C@@H](CCCNC(=N)N)C(=O)N[C@@H](CCCCN)C(=O)N[C@@H](CC(C)C)C(=O)N[C@@H](CC(C)C)C(=O)N[C@@H](CCC(N)=O)C(=O)N[C@@H](CC(=O)O)C(=O)N[C@H](C(=O)N[C@@H](CCSC)C(=O)N[C@@H](CO)C(=O)N[C@@H](CCCNC(=N)N)C(N)=O)[C@@H](C)CC)C(C)C)[C@@H](C)O [GH-RH (1-29) NH2, Tyr-Ala-Asp-Ala-Ile^5 -Phe-Thr-Asn-Ser-Tyr^10 -Arg-Lys-Val-Leu-Gly^15 -Gln-Leu-Ser-Ala-Arg^20 -Lys-Leu-Leu-Gln-Asp^25 -Ile-Met-Ser-Arg^29 -NH2]
- Serum GH Levels ([1]; GH-RH(1-29)NH2 alone 3.0 μg/kg i.v. (stimulated control)): 695.15 ± 95.40 ng/mL and 703.34 ± 90.01 ng/mL and 724.68 ± 93.01 ng/mL and 883.36 ± 148.34 ng/mL and 703.34 ± 93.01 ng/mL

Compound: Ibu^0 --D--Arg^2 --Phe(pCl)^6 --Abu^16 --Nle^27 ] hGHRH (1-28) Agm [Peptide A]
- Inhibition % [1, 3]: 43%
- Serum GH Levels [1, 3]: 585.33 ± 89.34 ng/mL
- Serum GH Levels ([1]; 80 μg/kg i.v., 30 min prior to GH-RH(1-29)NH2 3 μg/kg): 788.39 ± 96.93 ng/mL
- effect on growth of SW-1990 cancers (volume and weight data) ([2]; Peptide #8 at 10 μg/day): no significant effect on the tumors
- Final Tumor Volume mm^3 ([2]; dose 10, 44 days treatment): 1183 ± 342 mm^3
- Tumor weights ([2]; dose 10, 44 days treatment): 1467 ± 595 mg
- Final Tumor Volume mm^3 ([2]; dose 40, 44 days treatment): 902 ± 156 mm^3
- Tumor weights ([2]; dose 40, 44 days treatment): 1297 ± 258 mg

Compound: [AcTyr^1 ]hGH-RH(1-29)NH2
- in vivo potency over that of GH-RH (GH release): ten fold or more
